Measurements: publication PMC4128046, “Effect of a toggle switch mutation in TM6 of the human adenosine A3 receptor on Gi protein-dependent signalling and Gi-independent receptor internalization” (British Journal of Pharmacology, 2014)
Changes are numbered by the printed parent chain.

Assays:
SNAP-A3 W243F = biological target: T1, SNAP-A3 W243F (Homo sapiens, UniProt P0DMS8, W243F); experiment: Confocal imaging of SNAP-tagged receptor internalization, SNAP-A3 W243F; type: cell-based; conditions: SNAP-A3 W243F transiently expressed in CHO CRE-SPAP cells, BG-AF488 label, 10 μM agonist
T1 construct: the methionine start signal was removed from cDNA encoding the full length A3; expressed in transfected cells; host or cells: CHO CRE-SPAP, transient (Fugene HD)
T1 sequence (P0DMS8 2-318 W243F limits assumed): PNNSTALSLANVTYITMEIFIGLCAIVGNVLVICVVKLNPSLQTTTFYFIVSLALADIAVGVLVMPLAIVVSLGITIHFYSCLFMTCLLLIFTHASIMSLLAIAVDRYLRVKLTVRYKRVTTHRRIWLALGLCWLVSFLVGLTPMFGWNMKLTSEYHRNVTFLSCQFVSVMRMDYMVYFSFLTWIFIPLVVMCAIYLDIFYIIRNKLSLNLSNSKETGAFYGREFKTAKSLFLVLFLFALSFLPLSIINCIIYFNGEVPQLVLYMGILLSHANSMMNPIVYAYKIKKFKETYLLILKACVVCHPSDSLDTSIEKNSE
Experimental: CHO-K1 cells stably expressing a cAMP response element-secreted placental alkaline phosphatase (CRE-SPAP) reporter gene (CHO CRE-SPAP) under hygromycin selectivity and CHO-K1 cells stably expressing β-arrestin2-vYnL (CHO β-arrestin2-vYnL, a gift from Dr. N. Holliday, University of Nottingham, Nottingham, UK) were maintained in DMEM/F12 medium containing 10% FCS and 2 mM L-glutamine at 37°C in a humidified atmosphere of air/CO2 (19:1). […] Cell lines were initially screened for YFP or bimolecular fluorescence complementation (BiFC) fluorescence and CRE-SPAP cells lines were subsequently tested in the CRE-SPAP gene transcription assay. […]
Live-cell BiFC imaging was performed on A3-vYc/β-arrestin2-vYnL and A3 W243F-vYc/β-arrestin2-vYnL cells grown in Nunc Labtek 8-well plates, and images obtained using a Zeiss 710 confocal microscope (Carl Zeiss GmbH, Jena, Germany) fitted with a 63× plan-Apochromat NA1.4 Ph3 oil-immersion objective. […] For both YFP, BiFC and BG-AF488 label, a 488 nm argon laser was used to excite the fluorophore and emission was detected using a BP505-530 filter. […] Images of A3-YFP and A3 W243F-YFP cells were taken with same pinhole diameter, laser power, gain and offset to allow comparison of YFP fluorescence. To obtain fluorescence intensity values, a region of interest was drawn around the plasma membrane of 10 cells per image in Zeiss AIM 4.2 software (Carl Zeiss GmbH).

A3 W243F-YFP = biological target: T2, A3 W243F-YFP (Homo sapiens, UniProt P0DMS8, W243F); experiment: Fluorescence-based competition binding assay with CA200645, A3 W243F-YFP; conditions: A3 W243F-YFP cells, 25 nM CA200645, 60 min, 37°C
T2 construct: Full length A3 W243F-YFP was excised and subcloned into a native pcDNA3.1 vector; expressed in transfected cells
T2 sequence (P0DMS8 1-318 W243F): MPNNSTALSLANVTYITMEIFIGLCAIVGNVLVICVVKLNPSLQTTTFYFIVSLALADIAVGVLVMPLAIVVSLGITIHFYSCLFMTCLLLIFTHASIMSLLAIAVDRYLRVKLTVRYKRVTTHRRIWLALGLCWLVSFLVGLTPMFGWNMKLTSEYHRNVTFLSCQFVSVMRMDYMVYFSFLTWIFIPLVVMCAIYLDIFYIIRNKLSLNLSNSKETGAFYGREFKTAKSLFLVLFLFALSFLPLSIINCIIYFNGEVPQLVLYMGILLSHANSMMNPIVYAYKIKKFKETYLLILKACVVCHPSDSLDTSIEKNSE
Experimental: (§1) On the day of analysis, normal growth medium was removed and cells washed once with HBSS pre-warmed to 37°C. […] Buffer was then removed from each well, cells washed once in HBSS and fresh HBSS added at room temperature. Plates were immediately imaged using an ImageXpress Ultra confocal plate reader, which captured four central images per well using a Plan Fluor 40× NA0.6 extra-long working distance objective. CA200645 was excited at 635 nm and emission collected through a 640–685 nm band pass filter. Total image intensity was obtained using a multiwave length cell scoring algorithm within MetaXpress software (Molecular Devices).
(§2) Time course experiments were fitted using a one phase association equation which is as follows [drawing 2] where Yo represents the level of internalization at time (t) equal to zero, Plateau is the maximal internalization at infinite time and K is the rate constant in […]. Statistical significance was determined by Student's unpaired t-test or by one-way ANOVA with Dunnett's post hoc analysis and P < 0.05 was considered statistically significant.

A3-YFP = biological target: T3, A3-YFP (Homo sapiens, UniProt P0DMS8); experiment: Fluorescence-based competition binding assay with CA200645, A3-YFP; conditions: A3-YFP cells, 25 nM CA200645, 60 min, 37°C
T3 construct: cDNA encoding the full length human A3 receptor; expressed in transfected cells
T3 sequence (P0DMS8 1-318): T2 sequence (P0DMS8 1-318 W243F) with F243W
Experimental: as §1, §2

Row | Compound | internalization of SNAP-tagged receptor seen in confocal images (SNAP-A3 W243F) | Ki (A3 W243F-YFP) | Ki (A3-YFP)
1 | CCCCC#Cc1nc(NC)c2ncn([C@@H]3O[C@H](CO)[C@@H](O)[C@H]3O)c2n1 [HEMADO, 2-(1-hexynyl)-N-methyladenosine] | did not result in any clear change in the localization | 45.7 nM | 33.1 nM
2 | CCNC(=O)[C@H]1O[C@@H](n2cnc3c(N)ncnc32)[C@H](O)[C@@H]1O [NECA, 5-(N-ethylcarboxamido)adenosine] | retained the ability to cause internalization | – | –
